This test addresses T1, human Lf (lactoferrin) (Homo sapiens, UniProt P02788).
T1 construct: gene LTF; full-length, label-free
Kind of test: label-free microscale thermophoresis (intrinsic fluorescence, […] nm). It counts as binding. The note with it: 0.1 M Tris pH 7.4; Lf 120 nM; CP20 7 nM to 250 μM; 10 min equilibration; iron saturation of Lf not stated. (Microscale thermophoresis detects binding through changes in fluorescence in a small temperature gradient.)

The results in this text go back to article PMC9319837, “Microscale Thermophoresis and Molecular Modelling to Explore the Chelating Drug Transportation in the Milk to Infant” (Molecules, 2022).

The structures appear in SMILES notation.

T1 sequence (P02788 20-710): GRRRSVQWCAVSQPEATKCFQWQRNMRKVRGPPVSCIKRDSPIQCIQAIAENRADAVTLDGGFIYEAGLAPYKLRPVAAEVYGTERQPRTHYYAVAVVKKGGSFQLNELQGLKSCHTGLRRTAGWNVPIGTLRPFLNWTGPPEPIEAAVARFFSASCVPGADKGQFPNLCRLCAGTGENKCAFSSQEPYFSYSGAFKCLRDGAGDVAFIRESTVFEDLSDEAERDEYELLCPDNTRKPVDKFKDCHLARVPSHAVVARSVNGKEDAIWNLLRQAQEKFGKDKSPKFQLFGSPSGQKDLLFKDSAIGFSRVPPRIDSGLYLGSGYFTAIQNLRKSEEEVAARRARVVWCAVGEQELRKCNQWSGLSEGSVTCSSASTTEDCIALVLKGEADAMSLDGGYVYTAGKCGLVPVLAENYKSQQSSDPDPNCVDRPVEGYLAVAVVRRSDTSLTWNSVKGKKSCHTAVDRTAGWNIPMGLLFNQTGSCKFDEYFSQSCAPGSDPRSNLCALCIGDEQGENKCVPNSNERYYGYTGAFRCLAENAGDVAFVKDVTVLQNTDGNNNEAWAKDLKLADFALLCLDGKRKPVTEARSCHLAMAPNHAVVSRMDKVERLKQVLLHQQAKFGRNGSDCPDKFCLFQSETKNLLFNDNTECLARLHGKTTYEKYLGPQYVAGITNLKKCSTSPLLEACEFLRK

Regarding `Cc1c(O)c(=O)ccn1C` [deferiprone, 1,2-dimethyl-3-hydroxypyrid-4-one], the Kd is listed as 8.9 × 10^−6 ± 1.6 Molar.
